Source: the NIST ThermoML archive (doi:10.1016/j.fluid.2010.02.012)
± gives the expanded uncertainty stated by the source.

Assay: excess molar enthalpy (molar enthalpy of mixing); xn = mol fraction of the nth substance listed
Conditions: 298.18 K, 101 kPa, Liquid, Calvet calorimetry

CCCCCCCCCC [decane] + CCO
excess molar enthalpy (x2 = 0.0881): 0.12 ± 0.00263 kcal/mol | excess molar enthalpy (x2 = 0.1338): 0.142 ± 0.00311 kcal/mol | excess molar enthalpy (x2 = 0.1766): 0.159 ± 0.00335 kcal/mol | excess molar enthalpy (x2 = 0.2665): 0.174 ± 0.00382 kcal/mol | excess molar enthalpy (x2 = 0.3141): 0.176 ± 0.00382 kcal/mol | excess molar enthalpy (x2 = 0.4314): 0.176 ± 0.00382 kcal/mol | excess molar enthalpy (x2 = 0.5931): 0.161 ± 0.00359 kcal/mol | excess molar enthalpy (x2 = 0.6501): 0.153 ± 0.00335 kcal/mol | excess molar enthalpy (x2 = 0.7248): 0.141 ± 0.00311 kcal/mol | excess molar enthalpy (x2 = 0.7837): 0.128 ± 0.00287 kcal/mol | excess molar enthalpy (x2 = 0.8079): 0.123 ± 0.00263 kcal/mol | excess molar enthalpy (x2 = 0.848): 0.105 ± 0.00239 kcal/mol | excess molar enthalpy (x2 = 0.8829): 0.0894 ± 0.00191 kcal/mol | excess molar enthalpy (x2 = 0.9377): 0.0576 ± 0.0012 kcal/mol | excess molar enthalpy (x2 = 0.962): 0.038 ± 0.000956 kcal/mol
